Several values for one entry are separate records, joined by “and”; a condition that tells them apart may be missing. Equal entries are not always repeated.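 Test compounds were applied to cells in 96-well plates for 48 hours at 5 doses. GI50 = concentration required for 50% inhibition of growth. TGI: total growth inhibition.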
Columns and labels:
Assay in all cases: NCI anticancer screen, dose series, 48 h
OVCAR-4 ovarian = tested on: OVCAR-4 ovarian
TK-10 renal = tested on: TK-10 renal
KM12 colon = tested on: KM12 colon
HCC-2998 colon = tested on: HCC-2998 colon
HOP-92 NSCLC = tested on: HOP-92 NSCLC
RPMI-8226 leukemia = tested on: RPMI-8226 leukemia
IGROV1 ovarian = tested on: IGROV1 ovarian
UACC-257 melanoma = tested on: UACC-257 melanoma
M14 melanoma = tested on: M14 melanoma
CAKI-1 renal = tested on: CAKI-1 renal

Row | Compound | TGI (OVCAR-4 ovarian) | TGI (TK-10 renal) [µM] | TGI (KM12 colon) [µM] | TGI (HCC-2998 colon) [µM] | TGI (HOP-92 NSCLC) | TGI (RPMI-8226 leukemia) [µM] | TGI (IGROV1 ovarian) [µM] | TGI (UACC-257 melanoma) [µM] | TGI (M14 melanoma) [µM] | TGI (CAKI-1 renal) [µM] | GI50 (OVCAR-4 ovarian) [µM] | GI50 (TK-10 renal) [µM] | GI50 (KM12 colon) [µM] | GI50 (CAKI-1 renal) [µM] | GI50 (HCC-2998 colon) [µM] | GI50 (HOP-92 NSCLC) | GI50 (RPMI-8226 leukemia) [µM] | GI50 (IGROV1 ovarian) [µM] | GI50 (M14 melanoma) [µM] | GI50 (UACC-257 melanoma) [µM]
1 | C=C1C(=O)OC2/C=C(\C=O)CC/C=C(\C)C(O)C[C@@H]12 (stereo not given in full) | 27.5 µM | 24.7 | 18.5 | 31.7 | 17.2 µM | 8.69 | 32.3 | 18 | 12.4 |  |  |  |  |  |  |  |  |  |  | 
2 | C1=CC=C2NCCOCCNC3=CC=CC=CC3=NCCOCCN=C2C=C1 | > 100 µM | > 100 | > 100 | > 100 |  | > 100 | > 100 | 44.6 | 41.6 | > 100 |  |  |  |  |  |  |  |  |  | 
3 | COC(=O)CCCCCN=Cc1c(O)c(O)c(C(C)C)c2cc(C)c(-c3c(C)cc4c(C(C)C)c(O)c(O)c(C=NCCCCCC(=O)OC)c4c3O)c(O)c12 | > 32.5 µM | > 32.5 | > 32.5 | > 32.5 | 2.88 µM | 15.1 | > 32.5 |  | 25.9 | > 32.5 | 1.05 | 1.15 | 1.28 | 6.17 | 2.15 | 0.797 µM | 0.946 | 1.76 | 2.3 | 
4 | Cc1c2cc[n+](C)cc2c(C)c2c1[nH]c1ccc(O)c(OCC(F)(F)F)c12 | 12.8 µM | 29.1 |  | 46.4 | 17.4 µM | 16.8 | 23.1 | 18.9 | 15.7 | 29 |  |  |  |  |  |  |  |  |  | 
5 | COc1cc2nc(-c3ccc(C(F)(F)F)cc3)cc(OCCCN3CCCCC3)c2cc1OC | 31.3 µM | 24.5 | 26.9 | 5.72 | 7.08 µM |  | 16 | 5.27 | 1.26 | 5.05 | 2.91 | 7.81 | 2.92 | 0.272 | 1.28 | 0.678 µM |  | 0.651 | 0.327 | 1.7
6 | O=C(O)CSc1ncccc1[N+](=O)[O-] | > 100 µM | > 100 | > 100 |  | > 100 µM |  | > 100 | > 100 | > 100 | > 100 |  |  |  |  |  |  |  |  |  | 
7 | CC(=O)O[C@@H]1C2C(=O)OC(=O)C2C2CCC[C@]23O[C@H]13 (stereo not given in full) | > 100 µM | > 100 | > 100 | > 100 |  | > 100 | > 100 | > 100 | > 100 | > 100 |  |  |  |  |  |  |  |  |  | 
8 | N#CC(NNC(=O)c1ccccc1O)c1cccc(O)c1 (stereo not given) | > 100 µM | > 100 | > 100 |  | > 100 µM | > 100 | > 100 | > 100 | > 100 | > 100 |  |  |  |  |  |  |  |  |  | 
9 | S=c1nc(-c2cccnc2)[nH][nH]1 | > 1 µM | > 100 | > 100 | > 100 | > 100 µM | > 100 |  | > 100 | > 100 | > 1 |  |  |  |  |  |  |  |  |  | 
10 | Cc1c(Cl)cccc1NC(=O)CC1C(=O)Nc2ccccc2S1(=O)=O (stereo not given) | 67.2 µM | 56.6 |  | 33.4 | 31.7 µM | 32.3 | 31.7 | 77.8 | 29.3 | 38.8 |  |  |  |  |  |  |  |  |  | 
11 | COc1ccc(/C=C2\C(=O)N(C(=O)Cc3ccccc3)N=C2C)cc1OC | > 100 µM | > 100 | > 100 | > 100 |  | > 100 |  | > 100 | > 100 | > 100 |  |  |  |  |  |  |  |  |  | 
12 | BrC1(Br)C2/C=C\CCCCC21 (stereo not given) | > 100 µM | > 100 | > 100 | > 100 | > 100 µM |  | > 100 | > 100 |  | > 100 |  |  |  |  |  |  |  |  |  | 
13 | CCOC(=O)[C@H]1Nc2ccc(OC)cc2C2c3ccccc3CC21 (stereo not given in full) | > 100 µM | > 100 | > 100 | > 100 |  | > 100 | > 100 | > 100 | > 100 | > 100 |  |  |  |  |  |  |  |  |  | 
14 | c1cc(CNC2C3CCC(C3)C2c2c[nH]c3ccccc23)cc(CNC2C3CCC(C3)C2c2c[nH]c3ccccc23)c1 (stereo not given) | 3.24 µM and 3.34 µM | 3.39 | 4.04 |  | 2.33 µM and 2.63 µM | > 100 | 2.69 | 3.82 | 5.3 |  |  |  |  |  |  | 1.09 µM and 1.29 µM |  |  |  | 2
15 | CC(=O)OC1[C@H]2c3cc4c(cc3CN3CCC(=C[C@@H]1O)C23)OCO4 (stereo not given in full) |  | > 100 | > 100 | > 100 |  | > 100 | > 100 | > 100 | > 100 |  |  |  |  |  |  |  |  |  |  | 
16 | Fc1cccc(Cl)c1/C=N\N=C1c2ccccc2-c2ccccc21 | > 100 µM | > 100 | > 100 |  | > 100 µM | > 100 | > 100 | > 100 | > 100 | > 100 |  |  |  |  |  |  |  |  |  | 
17 | COc1cc(Br)c(C=Nc2cccc3ccc(OS(=O)(=O)c4cccc([N+](=O)[O-])c4)cc23)cc1OC | > 100 µM |  | > 100 | > 100 | 35.3 µM | > 100 | > 100 | > 100 |  | > 100 |  |  |  |  |  |  |  |  |  | 
18 | Cc1ccc(S(=O)(=O)N=Nc2c(O)[nH]c3c(Cl)cc(Cl)cc23)cc1 | > 100 µM | > 100 | > 100 | > 100 | > 100 µM |  | > 100 | > 100 | > 100 | > 100 |  |  |  |  |  |  |  |  |  | 
19 | CCN1CSC(=S)N(CC)C1 | > 100 µM | > 100 | > 100 | > 100 | > 100 µM | > 100 | > 100 | > 100 | > 100 |  |  |  |  |  |  |  |  |  |  | 
20 | CCOC(=O)C(=O)Nc1c(C(C)C)cccc1C(C)C | > 100 µM | > 100 | > 100 | > 100 | > 100 µM |  | > 100 | > 100 | > 100 | > 100 |  |  |  |  |  |  |  |  |  | 
21 | CC1(C)C2CCC3(C2)CS(=O)(=O)N2OC231 (stereo not given) |  | 32.9 | 41.9 | > 100 | 25.2 µM | > 100 | 43.4 | 33.1 | 30 | 30.4 |  |  |  |  |  |  |  |  |  | 
22 | C[C-](O)O.O/C(=C\[C-](O)c1ccccc1)c1ccccc1.O/C(=C\[C-](O)c1ccccc1)c1ccccc1.[Nd+3] (stereo not given) | > 100 µM | 94.2 |  | 20.2 | 35.3 µM | 33.5 | > 100 | 42.3 | 33.8 | 42.2 | 15.9 | 20.9 |  | 11.9 | 2.17 | 12.9 µM | 6.43 | 14.1 | 14.6 | 15.5

— PubChem BioAssay (NCI)
